Paper PMC9979163, “Discovery and functional characterization of N-(thiazol-2-yl)-benzamide analogs as the first class of selective antagonists of the Zinc-Activated Channel (ZAC)” (Biochemical pharmacology, 2021)

Key:
ZAC [1] = target: T1, ZAC (Homo sapiens, UniProt Q401N2); test: TEVC recordings, Zn2+-evoked currents at ZAC expressed in Xenopus oocytes; format: cell-based; settings: for Antagonist activity at ZAC in SAR study (in words): tested at three concentrations (0.3-3-30 μM or 1-10-100 μM); for IC50: steady-state current, read-out: pIC50 ± S.E.M. (converted)
T1 sequence (Q401N2 26-412): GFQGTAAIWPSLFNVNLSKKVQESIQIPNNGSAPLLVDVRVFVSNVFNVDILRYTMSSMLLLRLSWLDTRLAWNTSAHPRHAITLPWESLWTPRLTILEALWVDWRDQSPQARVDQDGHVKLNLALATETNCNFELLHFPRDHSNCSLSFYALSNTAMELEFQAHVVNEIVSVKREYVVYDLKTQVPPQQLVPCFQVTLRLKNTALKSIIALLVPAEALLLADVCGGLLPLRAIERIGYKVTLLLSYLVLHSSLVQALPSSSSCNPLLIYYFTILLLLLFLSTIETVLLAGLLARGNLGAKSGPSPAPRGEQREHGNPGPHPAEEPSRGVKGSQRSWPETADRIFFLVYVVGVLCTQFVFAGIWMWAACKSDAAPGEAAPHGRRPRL
Protocol: (§1) The cDNAs for the various WT and chimeric CLR subunits were linearized and subsequently transcribed and capped mMessage mMachine T7 RNA transcription kit (Ambion, Waltham, MA). Different amounts of cRNA mixtures were injected for ZAC (9.2–36.8 nL in a concentration of 0.05 μg/μL), […] nAChR (9.2–36.8 nL in a concentration of 0.1 μg/μL of each subunit in a ratio of 1:1), hα1 GlyR (9.2–36.8 nL in a concentration of 0.05 μg/μL), hα1β2γ2s GABAAR (9.2–36.8 nL in a concentration of 0.05 μg/μL of each subunit in a ratio of 1:1:3), m5-HT3AR (9.2–36.8 nL in a concentration of 0.05 μg/μL), m5-HT3A/ZAC (9.2–36.8 nL in a concentration of 0.207 μg/μL), and ZAC/hai-Gly (9.2–36.8 nL in a concentration of 0.206 μg/μL). Oocytes were incubated in a sterile modified Barth’s solution [88 mM NaCl, 1 mM KCl, 15 mM HEPES (pH 7.5), 2.4 mM NaHCO3, 0.41 mM CaCl2, 0.82 mM MgSO4, 0.3 mM Ca(NO3)2, 100 U/ml penicillin and 100 μg/ml strep-tomycin] at 18 °C for 2 days after injection.
(§2) On the day of experiment, all compound dilutions were prepared in a saline solution [115 mM NaCl, 2.5 mM KCl, 10 mM MOPS (pH 7.5), 1.8 mM CaCl2, 0.1 mM MgCl2] and pH adjusted to 7.5 (if needed). Oocytes were placed in a recording chamber continuously perfused with this saline solution, and the compounds were applied in the perfusate. Both voltage and current electrodes were agar-plugged with 3 M KCl with a resistance of 0.2–2.0 MΩ. Oocytes were voltage-clamped at −50 mV (unless otherwise stated) by a Gene Clamp 500B amplifier (Axon Instruments, Union City, CA), while current signals were digitized by a Digidata 1320. Currents were recorded using pCLAMP 10 (Molecular Devices, Sunnyvale, CA). The recordings were performed at room temperature.
In all recordings, the compounds or compound combinations were applied in the bath until the peak current decayed to a steady state (up to 30 sec at the most). […] The functional properties of the modulators at the CLRs were determined by pre-application of the modulator to the perfusate 30 sec and followed by co-application of the modulator and the agonist to the perfusate. In all recordings, washes of 1–5 min were executed between the applications to prevent receptor desensitization, the duration of these washes depending on the kinetics of the respective receptors and the “stickyness” of the respective compounds. […] For the selectivity and mode-of-action studies, the agonist concentrations used for different CLRs or chimeric CLRs were in the EC20–EC40 range (verified on the day of experiment), as this enabled us to investigate both for putative positive and negative receptor modulation exerted by TTFB (hα3β4 nAChR, 3 μM (S)-nicotine; m5-HT3AR, 2 μM 5-HT; hα1 GlyR, 100 μM glycine; hα1β2γ2S GABAAR, 30 μM GABA; m5-HT3A/ZAC, 0.3 μM 5-HT; ZAC/hɑ1-Gly, 2 μM Zn^2+).
Data analysis of the results from the TEVC recordings were performed using Clampfit software version 10.5 (Molecular Devices, Crawley, UK) and GraphPad Prism version 7.0c (GraphPad Software, Inc. La Jolla, CA). Data for the test compounds were normalized to either the maximal agonist-evoked current or to an EC20–EC50-mediated response elicited by the agonist on each oocyte (specified in each case). Unless otherwise stated, data for agonist-induced responses in the presence of the antagonists were extracted from the plateau (or steady-state) of the agonist-evoked current. Concentration-response and concentration-inhibition curves were fitted in GraphPad Prism by nonlinear regression using the equation for sigmoidal dose-response with variable slope. I-V relationships were analyzed by fitting the curves with a third order polynomial model. Each data point represents the mean ± S.E.M. value of recordings performed on at least five oocytes from at least two different batches.

ZAC [2] = target: T1, ZAC; test: TEVC recordings, spontaneous ZAC activity in Xenopus oocytes; format: cell-based; settings: for IC50: block of spontaneous ZAC activity (leak current), TEVC
Protocol: as §1, §2
In all recordings, the compounds or compound combinations were applied in the bath until the peak current decayed to a steady state (up to 30 sec at the most). […] The functional properties of the modulators at the CLRs were determined by pre-application of the modulator to the perfusate 30 sec and followed by co-application of the modulator and the agonist to the perfusate. In all recordings, washes of 1–5 min were executed between the applications to prevent receptor desensitization, the duration of these washes depending on the kinetics of the respective receptors and the “stickyness” of the respective compounds. […]
(§3) Data analysis of the results from the TEVC recordings were performed using Clampfit software version 10.5 (Molecular Devices, Crawley, UK) and GraphPad Prism version 7.0c (GraphPad Software, Inc. La Jolla, CA). […] I-V relationships were analyzed by fitting the curves with a third order polynomial model. […]

hα3β4 nAChR = hα3β4 nAChR (Homo sapiens, UniProt P30926+P32297); test: TEVC selectivity, hα3β4 nAChR in oocytes; format: cell-based; settings: 30 μM, 30 s preapplication, 3 μM (S)-nicotine (EC20–EC40)
Protocol: (§4) The cDNAs for the various WT and chimeric CLR subunits were linearized and subsequently transcribed and capped mMessage mMachine T7 RNA transcription kit (Ambion, Waltham, MA). […]
(§5) On the day of experiment, all compound dilutions were prepared in a saline solution [115 mM NaCl, 2.5 mM KCl, 10 mM MOPS (pH 7.5), 1.8 mM CaCl2, 0.1 mM MgCl2] and pH adjusted to 7.5 (if needed). […] Currents were recorded using pCLAMP 10 (Molecular Devices, Sunnyvale, CA). […]
(§6) In all recordings, the compounds or compound combinations were applied in the bath until the peak current decayed to a steady state (up to 30 sec at the most). […] The functional properties of the modulators at the CLRs were determined by pre-application of the modulator to the perfusate 30 sec and followed by co-application of the modulator and the agonist to the perfusate. […]
as §3

hα1β2γ2s GABAAR = hα1β2γ2s GABAAR (Homo sapiens, UniProt P14867+P18507+P47870); test: TEVC selectivity, hα1β2γ2s GABAAR in oocytes; format: cell-based; settings: 30 μM, 30 s preapplication, 30 μM GABA (EC20–EC40)
Protocol: as §4, §5, §6, §3

m5-HT3A/ZAC = test: TEVC, chimeric m5-HT3A/ZAC receptor in oocytes; format: cell-based, mouse/human; settings: 30 μM, 0.3 μM 5-HT
Protocol: as §4, §5, §6, §3

Solubility (remark) = format: physicochemical

Chain of hα1β2γ2s GABAAR (P14867 28-456): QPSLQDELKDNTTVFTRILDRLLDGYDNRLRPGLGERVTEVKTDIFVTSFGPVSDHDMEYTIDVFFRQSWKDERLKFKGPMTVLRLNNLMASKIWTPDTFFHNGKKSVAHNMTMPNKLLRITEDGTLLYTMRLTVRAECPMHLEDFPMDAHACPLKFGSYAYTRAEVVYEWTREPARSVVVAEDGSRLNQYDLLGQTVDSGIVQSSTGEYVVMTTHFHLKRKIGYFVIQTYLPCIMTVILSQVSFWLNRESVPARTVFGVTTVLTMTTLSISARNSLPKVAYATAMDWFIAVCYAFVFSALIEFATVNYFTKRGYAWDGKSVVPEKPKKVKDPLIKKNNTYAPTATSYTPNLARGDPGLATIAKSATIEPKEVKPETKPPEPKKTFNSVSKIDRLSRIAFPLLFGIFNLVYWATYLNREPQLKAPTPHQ
Chain of hα1β2γ2s GABAAR (P47870 25-512 limits assumed): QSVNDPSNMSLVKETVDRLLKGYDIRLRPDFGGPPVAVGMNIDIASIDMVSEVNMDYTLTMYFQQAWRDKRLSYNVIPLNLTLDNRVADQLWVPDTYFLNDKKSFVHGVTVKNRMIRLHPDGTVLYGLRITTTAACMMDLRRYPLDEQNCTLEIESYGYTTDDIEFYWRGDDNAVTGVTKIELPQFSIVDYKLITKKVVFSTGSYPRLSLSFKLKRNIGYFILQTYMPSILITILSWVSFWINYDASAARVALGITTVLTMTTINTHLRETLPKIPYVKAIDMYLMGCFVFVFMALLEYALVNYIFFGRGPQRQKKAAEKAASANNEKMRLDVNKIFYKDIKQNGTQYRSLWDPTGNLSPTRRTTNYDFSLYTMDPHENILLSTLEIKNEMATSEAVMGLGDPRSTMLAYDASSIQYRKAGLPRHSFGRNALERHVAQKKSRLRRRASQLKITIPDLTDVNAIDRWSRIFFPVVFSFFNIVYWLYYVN
Chain of hα1β2γ2s GABAAR (P18507 40-467 isoform P18507-1 limits assumed): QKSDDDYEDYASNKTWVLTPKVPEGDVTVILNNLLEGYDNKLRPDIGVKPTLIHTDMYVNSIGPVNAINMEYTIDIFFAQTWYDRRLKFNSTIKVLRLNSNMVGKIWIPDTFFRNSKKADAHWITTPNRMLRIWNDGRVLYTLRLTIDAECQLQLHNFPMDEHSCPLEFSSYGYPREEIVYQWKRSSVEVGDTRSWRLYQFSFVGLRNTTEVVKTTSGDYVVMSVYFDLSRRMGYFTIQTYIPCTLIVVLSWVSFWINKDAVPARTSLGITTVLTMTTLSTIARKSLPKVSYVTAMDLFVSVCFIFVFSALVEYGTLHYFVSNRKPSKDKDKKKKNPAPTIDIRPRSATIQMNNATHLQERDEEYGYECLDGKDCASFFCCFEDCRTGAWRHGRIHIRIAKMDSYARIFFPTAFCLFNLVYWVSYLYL
Chain of hα3β4 nAChR (P32297 32-505): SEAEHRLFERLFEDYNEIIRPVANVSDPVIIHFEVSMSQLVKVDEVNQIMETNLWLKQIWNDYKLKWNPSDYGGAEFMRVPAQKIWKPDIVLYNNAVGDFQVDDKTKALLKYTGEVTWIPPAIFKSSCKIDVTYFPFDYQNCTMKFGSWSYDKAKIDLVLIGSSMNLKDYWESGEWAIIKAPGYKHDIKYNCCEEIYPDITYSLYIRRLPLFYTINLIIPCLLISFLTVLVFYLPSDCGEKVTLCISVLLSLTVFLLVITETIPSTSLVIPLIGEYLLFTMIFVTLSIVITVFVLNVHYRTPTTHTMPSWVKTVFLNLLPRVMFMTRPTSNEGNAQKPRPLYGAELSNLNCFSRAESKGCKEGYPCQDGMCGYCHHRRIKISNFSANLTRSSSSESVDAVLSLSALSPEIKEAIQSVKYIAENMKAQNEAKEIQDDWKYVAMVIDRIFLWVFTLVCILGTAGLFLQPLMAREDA
Chain of hα3β4 nAChR (P30926 22-498): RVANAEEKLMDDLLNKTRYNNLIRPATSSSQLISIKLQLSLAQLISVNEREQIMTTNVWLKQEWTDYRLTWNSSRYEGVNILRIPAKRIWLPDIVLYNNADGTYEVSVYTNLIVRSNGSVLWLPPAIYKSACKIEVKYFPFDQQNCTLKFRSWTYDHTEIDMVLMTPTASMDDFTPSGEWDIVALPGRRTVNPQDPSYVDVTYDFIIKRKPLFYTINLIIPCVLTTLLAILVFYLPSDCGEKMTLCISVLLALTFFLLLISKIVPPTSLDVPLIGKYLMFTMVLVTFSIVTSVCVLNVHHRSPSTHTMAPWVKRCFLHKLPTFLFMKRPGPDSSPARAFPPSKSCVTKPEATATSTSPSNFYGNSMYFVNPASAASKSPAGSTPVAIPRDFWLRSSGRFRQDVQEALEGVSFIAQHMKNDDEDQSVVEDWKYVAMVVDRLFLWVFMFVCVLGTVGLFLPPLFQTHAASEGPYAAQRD

| Inhibition of ZAC at 10 μM (in words) (ZAC [1]; 10 μM compound, 1 mM Zn2+ as agonist) | Antagonist activity at ZAC in SAR study (in words) (ZAC [1]; 1 mM Zn2+ as agonist) | Fitted inhibition range, Inhibition (%) (ZAC [1]; Zn2+ (1 mM) as agonist, TEVC) | Hill coefficient nH ± S.E.M. (ZAC [1]; Zn2+ (1 mM) as agonist, TEVC) | IC50 (ZAC [1]; Zn2+ (1 mM) as agonist, TEVC) | Extent of inhibition of Zn2+-induced responses (in words) (ZAC [1]; Zn2+ (1 mM), full concentration-inhibition curves) | Equilibrium potential (ZAC [2]; TTFB (100 μM)-induced currents, holding potentials −60 mV to +60 mV) | IC50 (ZAC [2]; read-out: IC50) | IC50 (ZAC [2]; read-out: pIC50 ± S.E.M. (converted)) | Agonist, antagonist or PAM activity (hα3β4 nAChR) | Agonist, antagonist or PAM activity (hα1β2γ2s GABAAR) | Modulation of 5-HT-induced response (m5-HT3A/ZAC) | Solubility (in words) (Solubility (remark)) | Mode of antagonism (ZAC [1]; Zn2+ concentration-response curves in absence and presence of various concentrations of the compound) | SMILES |
| --- | --- | --- | --- | --- | --- | --- | --- | --- | --- | --- | --- | --- | --- | --- |
| almost complete inhibition | roughly equipotent with 2b | 91 ± 3% | −1.5 ± 0.08 | 3.02 µM | completely | −11.5 mV | 4.7 µM | 4.79 µM | did not display significant activity | did not display significant activity | complete inhibition | limited solubility | – | CC(C)(C)c1csc(NC(=O)c2cccc(F)c2)n1 [5a, N-(4-(tert-butyl)thiazol-2-yl)-3-fluorobenzamide] |
| – | weaker antagonists | – | −1.3 ± 0.13 | 4.07 µM | – | – | 7.4 µM | – | – | – | – | – | largely non-competitive | COC(=O)c1sc(NC(=O)c2cc(Br)ccc2Cl)nc1C [compound 1, 2-(5-bromo-2-chlorobenzamido)-4-methylthiazole-5-methyl ester] |
